Test results: patent US20220347171A1, “TREATMENT OF PRURIGO NODULARIS” (TREVI THERAPEUTICS, INC., priority 2016, published 2022)
Counter-ions that a name gives are not always drawn.

System: prurigo nodularis patients
Experiment: TR03ext (Example 3): Prurigo Activity Score (PAS) healed lesions; Stage 0 100% healed, Stage 1 75%-99%, Stage 2 50%-74%, Stage 3 25%-49%, Stage 4 0-24% healed
Type: in vivo, human
Excerpt: In some embodiments, after the treatment the patient experiences a substantial reduction of itch that is characterized by at least one category/stage improvement in Prurigo Activity Score (PAS). In particular embodiments, after the treatment the patient experiences a reduction of itch that results in at least one category/stage improvement in Prurigo Activity Score (PAS) domains of number of prurigo lesions, prurigo lesions with excoriations/crusts and/or healed prurigo lesions. The PAS consists of 7 qualitative and quantitative measurements related to the examination of the skin. Type, number, distribution, affected body parts, and quantitative number of lesions in a representative body part are documented. The biggest lesion and the most representative lesion are monitored with documentation of height and area measurements. Prurigo lesion activity is recorded as a percentages based on their stage (0-4). In some embodiments, number measurements of lesions on the body have four numerical categories: 0, 1-19, 20-100 and >100. In some embodiments, prurigo lesions with excoriations/crusts have five categories: Stage 4 (76%-100%), Stage 3 (51%-75%), Stage 2 (26%-50%), Stage 1 (1-25%) and Stage 0 (0%). In some embodiments, healed prurigo lesions have five categories: Stage 4 (0-24%), Stage 3 (25-49%), Stage 2 (50-74%), Stage 1 (75%-99%), Stage 0 (100%).
This clinical study was a Phase 2 Open Label Extension Study (clinical study TR03ext) of the randomized, double-blind, 3-parallel arm, placebo controlled dose ranging study described in Example 2. All those subjects who were randomized, and then completed Example 2 study, were eligible to participate in the Extension Study.
The primary endpoint was a description of the overall incidence and nature of Treatment-Emergent AEs (TEAES) during weeks 5-50 of the study. Exploratory efficacy endpoints included Change from Baseline patient reported outcome measures of Worst itch NRS, itchy VRS and ItchyQoL, by Treatment Period study visit and Baseline NRS score. There was also an assessment of any potential skin lesion changes over time using the metrics of the PAS.
Patients in Extension Study were titrated over a dose range of 30 mg QD to 180 mg BID based on tolerability. The selected dose range was based on Example 2 study whereby patients were titrated from a 30 mg QD dose either to 30 mg BID, 60 mg BID, 90 mg BID, 120 mg BID or a 180 mg BID dose. The highest dose proposed was 180 mg BID (360 mg daily dose), and was well below the highest recommended daily treatment of 160 mg IV (equivalent to 960 mg oral) for the current marketed parenteral administered product.
Tables 12, 13 and 14 display healed lesion PAS data for subjects who received treatment for at least 6 months, subjects who received treatment for at least 9 months and subjects who completed 50 weeks of treatment in the study, respectively. The status of the healed lesion activity is reported as percentages based on their stage (0-4) using a grading system: Stage 0 (100% healed); Stage 1 (75%-99% healed); Stage 2 (50%-74% healed); Stage 3 (25%-49% healed); Stage 4: 0-24% healed. Thus the higher the stage, the […] the prurigo skin pathology.

[1] = treatment for at least 6 months

Oc1ccc2c3c1OC1[C@@H](O)CC[C@@]4(O)[C@@H](C2)N(CC2CCC2)CC[C@]314 (stereo partly drawn) [Nalbuphine, 17-(cyclobutylmethyl)-4,5α-epoxymorphinian-3, 6α, 14-triol, hydrochloride]
Subjects with at least one category improvement in the percentage of healed lesions (PAS) (after 6 months, 10/16): 62.5%
Subjects with at least one category improvement in the percentage of healed lesions (PAS) (after 9 months, 7/13): 53.8%
Subjects with at least one category improvement in the percentage of healed lesions (PAS) (after 12 months, 6/12): 50%
Healed lesion PAS Category Shift: Baseline Stage 0 to Last Observed Stage 0 (treatment for 50 weeks): 1 (7.7) Number (%) of Subjects
Healed lesion PAS Category Shift: Baseline Stage 0 to Last Observed Stage 1 (treatment for 50 weeks): 0 Number (%) of Subjects
Healed lesion PAS Category Shift: Baseline Stage 0 to Last Observed Stage 2 (treatment for 50 weeks): 0 Number (%) of Subjects
Healed lesion PAS Category Shift: Baseline Stage 0 to Last Observed Stage 3 (treatment for 50 weeks): 0 Number (%) of Subjects
Healed lesion PAS Category Shift: Baseline Stage 0 to Last Observed Stage 4 (treatment for 50 weeks): 0 Number (%) of Subjects
Healed lesion PAS Category Shift: Baseline Stage 1 to Last Observed Stage 0 (treatment for 50 weeks): 0 Number (%) of Subjects
Healed lesion PAS Category Shift: Baseline Stage 1 to Last Observed Stage 1 (treatment for 50 weeks): 2 (15.4) Number (%) of Subjects
Healed lesion PAS Category Shift: Baseline Stage 1 to Last Observed Stage 2 (treatment for 50 weeks): 1 (7.7) Number (%) of Subjects
Healed lesion PAS Category Shift: Baseline Stage 1 to Last Observed Stage 3 (treatment for 50 weeks): 0 Number (%) of Subjects
Healed lesion PAS Category Shift: Baseline Stage 1 to Last Observed Stage 4 (treatment for 50 weeks): 0 Number (%) of Subjects
Healed lesion PAS Category Shift: Baseline Stage 2 to Last Observed Stage 0 (treatment for 50 weeks): 0 Number (%) of Subjects
Healed lesion PAS Category Shift: Baseline Stage 2 to Last Observed Stage 1 (treatment for 50 weeks): 3 (23.1) Number (%) of Subjects
Healed lesion PAS Category Shift: Baseline Stage 2 to Last Observed Stage 2 (treatment for 50 weeks): 0 Number (%) of Subjects
Healed lesion PAS Category Shift: Baseline Stage 2 to Last Observed Stage 3 (treatment for 50 weeks): 0 Number (%) of Subjects
Healed lesion PAS Category Shift: Baseline Stage 2 to Last Observed Stage 4 (treatment for 50 weeks): 0 Number (%) of Subjects
Healed lesion PAS Category Shift: Baseline Stage 3 to Last Observed Stage 0 (treatment for 50 weeks): 0 Number (%) of Subjects
Healed lesion PAS Category Shift: Baseline Stage 3 to Last Observed Stage 1 (treatment for 50 weeks): 0 Number (%) of Subjects
Healed lesion PAS Category Shift: Baseline Stage 3 to Last Observed Stage 2 (treatment for 50 weeks): 0 Number (%) of Subjects
Healed lesion PAS Category Shift: Baseline Stage 3 to Last Observed Stage 3 (treatment for 50 weeks): 2 (15.4) Number (%) of Subjects
Healed lesion PAS Category Shift: Baseline Stage 3 to Last Observed Stage 4 (treatment for 50 weeks): 0 Number (%) of Subjects
Healed lesion PAS Category Shift: Baseline Stage 4 to Last Observed Stage 0 (treatment for 50 weeks): 1 (7.7) Number (%) of Subjects
Healed lesion PAS Category Shift: Baseline Stage 4 to Last Observed Stage 1 (treatment for 50 weeks): 0 (7.7) Number (%) of Subjects
Healed lesion PAS Category Shift: Baseline Stage 4 to Last Observed Stage 2 (treatment for 50 weeks): 1 (7.7) Number (%) of Subjects
Healed lesion PAS Category Shift: Baseline Stage 4 to Last Observed Stage 3 (treatment for 50 weeks): 1 (7.7) Number (%) of Subjects
Healed lesion PAS: Last Observed PAS Result Stage 0 (treatment for 50 weeks): 2 (15.4) Number (%) of Subjects
Healed lesion PAS: Last Observed PAS Result Stage 1 (treatment for 50 weeks): 6 (46.1) Number (%) of Subjects
Healed lesion PAS: Last Observed PAS Result Stage 2 (treatment for 50 weeks): 2 (15.4) Number (%) of Subjects
Healed lesion PAS: Last Observed PAS Result Stage 3 (treatment for 50 weeks): 3 (23.1) Number (%) of Subjects
Healed lesion PAS: Last Observed PAS Result Stage 4 (treatment for 50 weeks): 1 (7.7) Number (%) of Subjects
Healed lesion PAS Category Shift: Baseline Stage 0 to Last Observed Stage 0 [1]: 1 (5.9) Number (%) of Subjects
Healed lesion PAS Category Shift: Baseline Stage 0 to Last Observed Stage 1 [1]: 0 Number (%) of Subjects
Healed lesion PAS Category Shift: Baseline Stage 0 to Last Observed Stage 2 [1]: 0 Number (%) of Subjects
Healed lesion PAS Category Shift: Baseline Stage 0 to Last Observed Stage 3 [1]: 0 Number (%) of Subjects
Healed lesion PAS Category Shift: Baseline Stage 0 to Last Observed Stage 4 [1]: 0 Number (%) of Subjects
Healed lesion PAS Category Shift: Baseline Stage 1 to Last Observed Stage 0 [1]: 0 Number (%) of Subjects
Healed lesion PAS Category Shift: Baseline Stage 1 to Last Observed Stage 1 [1]: 2 (11.8) Number (%) of Subjects
Healed lesion PAS Category Shift: Baseline Stage 1 to Last Observed Stage 2 [1]: 1 (5.9) Number (%) of Subjects
Healed lesion PAS Category Shift: Baseline Stage 1 to Last Observed Stage 3 [1]: 0 Number (%) of Subjects
Healed lesion PAS Category Shift: Baseline Stage 1 to Last Observed Stage 4 [1]: 0 Number (%) of Subjects
Healed lesion PAS Category Shift: Baseline Stage 2 to Last Observed Stage 0 [1]: 1 (5.9) Number (%) of Subjects
Healed lesion PAS Category Shift: Baseline Stage 2 to Last Observed Stage 1 [1]: 3 (17.6) Number (%) of Subjects
Healed lesion PAS Category Shift: Baseline Stage 2 to Last Observed Stage 2 [1]: 0 Number (%) of Subjects
Healed lesion PAS Category Shift: Baseline Stage 2 to Last Observed Stage 3 [1]: 0 Number (%) of Subjects
